Values quoted from earlier work in patent publication US11555010B2, “Diamide antimicrobial agents” (BROWN UNIVERSITY, priority 2019, dated 2023).

Test system: LT
Settings: cited from earlier work

CC1=N[C@@H]2[C@@H](O)[C@H](O)[C@@H](CO)O[C@@H]2S1 [NAG-thiazoline]
binding to LT: weak binder
